This is an account of results in patent publication US20240382465A1, “AROMATIC ACETYLENE DERIVATIVE, AND PREPARATION METHOD THEREFOR AND USE THEREOF” (priority 2021, published 2024).

As a reminder, the MIC is the smallest concentration in the dilution series that meets the test's criterion for growth inhibition. One may read the pIC50 as the IC50 on a negative log10 scale, so that one unit is a factor of ten.

The subject of one assay is E. coli ATCC 25922. Nature of the assay: Antibacterial activity, MIC by broth microdilution (CLSI). It counts as cell-based. As to conditions: Escherichia coli, ATCC25922; E. coli ATCC 25922, 35° C., 18 to 24 hours; read-out: MIC(E. coli). On the procedure:
(§1) The in vitro minimum inhibitory concentration (MIC) was determined in accordance with the CLSI guidelines, and was measured using the broth microdilution method.
(§2) The experimental process is briefly described as follows: The test compound was dissolved in DMSO to prepare a […] stock solution, which was then prepared into 11 twice-diluted 100× high-concentration working solutions (the final concentration of the system was 64 μg/mL-0.06 μg/mL) using DMSO. The strains (K. pneumoniae ATCC13883 and E. coli ATCC 25922) frozen in −80° C. glycerol were inoculated into solid agar medium, placed in an incubator at 35° C. for 18-24 hours of incubation. After the preparation of strains was completed, an appropriate amount of solid plate culture was collected, resuspended in physiological saline, and mixed well. The bacterial suspension was adjusted to a suitable turbidity using a turbidity meter, containing approximately 1×10^8 cfu/mL bacteria. Then the bacterial suspension with the adjusted turbidity was diluted to a bacterial concentration of 5×10^5 cfu/ml using the culture medium for measurement, to complete the preparation of the inoculum solution. 198 μL of the inoculum solution was inoculated into a 96-well plate, and then added with 2 μL of a 100× high-concentration working solution of the compound. Then the 96-well plate was placed at 35° C. for 18 to 24 hours of incubation.
In general terms: Dilution methods test growth across graded concentrations, often in twofold steps.

In another assay the test system is K. pneumoniae ATCC13883. The description is as above. It counts as cell-based. Particulars: Klebsiella pneumoniae; K. pneumoniae ATCC13883, 35° C., 18 to 24 hours; read-out: MIC(K. Pneumoniae). As to the method: as §1, §2
Assay [1] deals with recombinant Pseudomonas aeruginosa LpxC (Pseudomonas aeruginosa (strain ATCC 15692 / DSM 22644 / CIP 104116 / JCM 14847 / LMG 12228 / 1C / PRS 101 / PAO1), UniProt P47205). Put plainly: Inhibition of LpxC enzymatic activity (fluorescamine assay). It counts as biochemical. As to the method:
The degree of inhibition of the enzymatic activity of recombinant Pseudomonas aeruginosa LpxC by the compounds of the present disclosure under in vitro conditions was determined using the following method.
The experimental procedure is briefly described as follows: The test compound was first dissolved in DMSO to prepare a 10 mM stock solution. The reaction was carried out in a 96-well microplate. First, 20 μL of recombinant Pseudomonas aeruginosa LpxC (purchased from Signalway Antibody, product number AP74647-2) was added to each well, with a final concentration of 5 nM. 5 μL of the compound to be tested was then added, and the compound was diluted 4 times to 8 concentration points with a concentration range of 0.61-10,000 nM. 5 μL of LpxC substrate UDP-3-O—(R-3-hydroxydecanoyl)-GlcNAc (purchased from Biosynth Carbosynth, product number: mu75071) was added, with a final concentration of the substrate of 10 μM. The plate was incubated at 25° C. for 120 minutes. Then 20 μL of 2.0 mg/mL fluorescamine (purchased from sigmaaldrich, product number: F9015, solvent: 1:1 dimethylformamide/acetonitrile) was added to the reaction system, and mixed well for 10 minutes of reaction. Finally, 50 μL of 200 mM sodium phosphate buffer (pH 8.0) was added to terminate the reaction. Reading was carried out using a microplate reader (BMG), and the excitation and emission wavelengths were 390 and 495 nm respectively. By comparing with the fluorescence intensity ratio of the control group ([…]), the percentage inhibition rate of the compound at each concentration was calculated.

The mark [2] stands for this setting: recombinant P. aeruginosa LpxC 5 nM, substrate 10 μM, 25° C., 120 minutes, read-out: IC50.

pIC50: −log10 of the molar value. ≈ marks a conversion by molar mass, not a printed value. Like-named read-outs stand apart in the source and are kept apart here.

In the case of `C[C@H](O)c1nccn1Cc1cc(-c2ccc(C#Cc3cccc(C(N)=O)c3)cc2)on1` [Example 63, (S)-3-((4-(3-((2-(1-hydroxyethyl)-1H-imidazol-1-yl)methyl)isoxazol-5-yl)phenyl)ethynyl)benzamide], the results for the MIC in the assay on E. coli ATCC 25922 and in the assay with K. pneumoniae ATCC13883 were 2 mg/L (≈ 4.85 µM) and 4 mg/L (≈ 9.7 µM), respectively. Besides, the pIC50 in assay [1] (setting [2]) is 7.19.
Taken in the same sequence, the figures for `C[C@H](O)c1nccn1Cc1cc(-c2ccc(C#Cc3ccc(CN4CCN(C)CC4)cc3)cc2)on1` [Example 48, (S)-1-(1-((5-(4-((4-((4-methylpiperazin-1-yl)methyl)phenyl)ethynyl)phenyl)isoxazol-3-yl)methyl)-1H-imidazol-2-yl)ethan-1-ol] were 2 mg/L (≈ 4.15 µM), 8 mg/L (≈ 16.6 µM) and 8.01.
Taken in the same sequence, the figures for `C[C@H](O)c1nccn1Cc1cc(-c2ccc(C#Cc3ccc(CC(=O)O)nc3)cc2)on1` [Example 39, (S)-2-(5-((4-(3-((2-(1-hydroxyethyl)-1H-imidazol-1-yl)methyl)isoxazol-5-yl)phenyl)ethynyl)pyridin-2-yl)acetic acid] were 0.5 mg/L (≈ 1.17 µM), 1 mg/L (≈ 2.33 µM) and 7.70.
Taken in the same sequence, the figures for `C[C@H](O)c1nccn1Cc1cc(-c2ccc(C#Cc3ccc(C(=O)N4CCOCC4)cc3)cc2)on1` [Example 6, (S)-(4-((4-(3-((2-(1-hydroxyethyl)-1H-imidazol-1-yl)methyl)isoxazol-5-yl)phenyl)ethynyl)phenyl)(morpholino)methanone] were 2 mg/L (≈ 4.14 µM), 4 mg/L (≈ 8.29 µM) and 7.89.
With `C[C@H](O)c1nccn1Cc1cc(-c2ccc(C#Cc3ccc(CNCCS(C)(=O)=O)cc3)cc2)on1` [Example 49, (S)-1-(1-((5-(4-((4-(((2-(methylsulfonyl)ethyl)amino)methyl)phenyl)ethynyl)phenyl)isoxazol-3-yl)methyl)-1H-imidazol-2-yl)ethan-1-ol], the results for the MIC in the assay on E. coli ATCC 25922 and in the assay with K. pneumoniae ATCC13883 were 1 mg/L (≈ 1.98 µM) and 4 mg/L (≈ 7.93 µM), respectively. Moreover, the pIC50 in assay [1] is 7.96.
With `C[C@H](O)c1nccn1Cc1cc(-c2ccc(C#Cc3cccc(CCC(=O)O)c3)cc2)on1` [Example 109, (S)-3-(3-((4-(3-((2-(1-hydroxyethyl)-1H-imidazol-1-yl)methyl)isoxazol-5-yl)phenyl)ethynyl)phenyl)propanoic acid], the MIC in the assay on E. coli ATCC 25922 is 4 mg/L (≈ 9.06 µM). Further, the pIC50 in assay [1] (setting [2]) is 7.63.
Taken in the same sequence, the figures for `C[C@H](O)c1nccn1Cc1coc(-c2ccc(C#Cc3ccc(CN4CCC(O)CC4)cc3)cc2)n1` [Example 22, (S)-1-(4-((4-(4-((2-(1-hydroxyethyl)-1H-imidazol-1-yl)methyl)oxazol-2-yl)phenyl)ethynyl)benzyl)piperidin-4-ol] were 4 mg/L (≈ 8.29 µM) and 7.00.
For `C[C@H](O)c1nccn1Cc1cc(-c2ccc(C#Cc3ccc(CN4CCOC(CC(=O)O)C4)cc3)cc2)on1` (stereo partly drawn) [Example 93, 2-(4-(4-((4-(3-((2-((S)-1-hy-droxyethyl)-1H-imidazol-1-yl)methyl)isoxazol-5-yl)phenyl)ethynyl)benzyl)morpholin-2-yl) acetic acid], in that order: 8 mg/L (≈ 15.2 µM) and 7.79.
Turning to `C[C@H](O)c1nccn1Cc1cc(-c2ccc(C#Cc3ccc(CNCC(=O)O)cc3)cc2)on1` [Example 99, (S)-(4-((4-(3-((2-(1-hydroxy-ethyl)-1H-imidazol-1-yl)methyl)isoxazol-5-yl)phenyl)ethynyl)benzyl)glycinate], in the assay with E. coli ATCC 25922, the MIC amounted to 4 mg/L (≈ 8.76 µM). In addition, in assay [1], the pIC50 is 7.71.
Regarding `C[C@H](O)c1nccn1Cc1cc(-c2ccc(C#Cc3ccc(C(=O)NCC(C)(C)O)cc3)cc2)on1` [Example 72, (S)-N-(2-hydroxy-2-methyl-propyl)-4-((4-(3-((2-(1-hydroxyethyl)-1H-imidazol-1-yl)methyl)isoxazol-5-yl)phenyl)ethynyl) benzamide], in the assay with E. coli ATCC 25922, the minimum inhibitory concentration (MIC) turned out to be 8 mg/L (≈ 16.5 µM). Besides, the pIC50 in assay [1] (setting [2]) is 7.58.
In the case of `C[C@H](O)c1nccn1Cc1cc(-c2ccc(C#Cc3ccc(CN4CCOCC4C(=O)O)cc3)cc2)on1` (stereo partly drawn) [Example 20, 4-(4-((4-(3-((2-((S)-1-hydroxyethyl)-1H-imidazol-1-yl)methyl)isoxazol-5-yl)phenyl)ethynyl)benzyl)morpholin-3-carboxylic acid], in the assay on E. coli ATCC 25922, the minimum inhibitory concentration (MIC) came to 4 mg/L (≈ 7.8 µM). For the same compound, the negative-log IC50 (pIC50) in assay [1] (setting [2]) is 8.01.
For `C[C@H](O)c1nccn1Cc1cc(-c2ccc(C#Cc3ccc(OCC4CCN(C)CC4)cc3)cc2)on1` [Example 76, (S)-1-(1-((5-(4-((4-((1-methylpiperidin-4-yl)methoxy)phenyl)ethynyl)phenyl)isoxazol-3-yl)methyl)-1H-imidazol-2-yl) ethan-1-ol], in that order: 8 mg/L (≈ 16.1 µM) and 7.89.
Taken in the same sequence, the figures for `CCN(CC)CCNC(=O)c1ccc(C#Cc2ccc(-c3cc(Cn4ccnc4[C@H](C)O)no3)cc2)cc1` [Example 70, (S)-N-(2-(diethylamino)ethyl)-4-((4-(3-((2-(1-hydroxyethyl)-1H-imidazol-1-yl)methyl)isoxazol-5-yl)phenyl)ethynyl) benzamide] were 8 mg/L (≈ 15.6 µM) and 7.89.
Regarding `C[C@H](O)c1nccn1Cc1cc(-c2ccc(C#Cc3ccc(C(=O)NCCN(C)C)cc3)cc2)on1` [Example 71, (S)-N-(2-(dimethylamino)ethyl)-4-((4-(3-((2-(1-hydroxyethyl)-1H-imidazol-1-yl)methyl)isoxazol-5-yl)phenyl)ethynyl) benzamide], the minimal inhibitory concentration (MIC) in the assay with E. coli ATCC 25922 was found to be 8 mg/L (≈ 16.5 µM). In assay [1] (setting [2]), the pIC50 was 7.62.
Taken in the same sequence, the figures for `C[C@H](O)c1nccn1Cc1cc(-c2ccc(C#Cc3cccc(OCC(=O)O)c3)cc2)on1` [Example 110, (S)-2-(3-((4-(3-((2-(1-hydroxyethyl)-1H-imidazol-1-yl)methyl)isoxazol-5-yl)phenyl)ethynyl)phenoxy)acetic acid] were 8 mg/L (≈ 18 µM) and 7.95.
For `C[C@H](O)c1nccn1Cc1cc(-c2ccc(C#Cc3ccc(C(=O)N4CCC(C(=O)O)CC4)cc3)cc2)on1` [Example 69, (S)-1-(4-((4-(3-((2-(1-hydroxyethyl)-1H-imidazol-1-yl)methyl)isoxazol-5-yl)phenyl)ethynyl)benzoyl)piperidin-4-carboxylic acid], the MIC in the assay with E. coli ATCC 25922 was found to be 8 mg/L (≈ 15.3 µM). Further, the pIC50 in assay [1] (setting [2]) is 7.98.
Taken in the same sequence, the figures for `C[C@H](O)c1nccn1Cc1cc(-c2ccc(C#Cc3ccc(CN4CCNCC4)cc3)cc2)on1` [Example 96, (S)-1-(1-((5-(4-((4-(piperazin-1-ylmethyl)phenyl)ethynyl)phenyl)isoxazol-3-yl)methyl)-1H-imidazol-2-yl)ethan-1-ol] were 4 mg/L (≈ 8.55 µM) and 7.80.
On to `C[C@H](O)c1nccn1Cc1cc(-c2ccc(C#Cc3ccc(CN4CCOC(C(=O)O)C4)cc3)cc2)on1` (stereo partly drawn) [Example 47, 4-(4-((4-(3-((2-((S)-1-hydroxyethyl)-1H-imidazol-1-yl)methyl)isoxazol-5-yl)phenyl)ethynyl)benzyl)morpholin-2-carboxylic acid], for which the MIC in the assay on E. coli ATCC 25922 is 8 mg/L (≈ 15.6 µM). Also, in assay [1], the negative-log IC50 (pIC50) is 7.95.
Take `C[C@H](O)c1nccn1Cc1cc(-c2ccc(C#Cc3ccc(CN4CC(C(=O)O)C4)cc3)cc2)on1` [Example 95, (S)-1-(4-((4-(3-((2-(1-hydroxyethyl)-1H-imidazol-1-yl)methyl)isoxazol-5-yl)phenyl)ethynyl)benzyl)azetidin-3-carboxylic acid]: the minimum inhibitory concentration (MIC) with E. coli ATCC 25922 stood at 8 mg/L (≈ 16.6 µM). For the same compound, the pIC50 in assay [1] (setting [2]) is 7.70.
As to `C[C@H](O)c1nccn1Cc1cc(-c2ccc(C#Cc3cccc(C(=O)O)c3)cc2)on1` [Example 107, (S)-3-((4-(3-((2-(1-hydroxy-ethyl)-1H-imidazol-1-yl)methyl)isoxazol-5-yl)phenyl)ethynyl) benzoic acid], the minimal inhibitory concentration (MIC) in the assay with E. coli ATCC 25922 came out at 8 mg/L (≈ 19.4 µM). In assay [1] (setting [2]), the pIC50 was 7.79.
For `C[C@H](O)c1nccn1Cc1cc(-c2ccc(C#Cc3ccc(N4CCOCC4)cc3)cc2)on1` [Example 5], in that order: 1 mg/L (≈ 2.2 µM) and 7.14.
